Read-outs that look alike come from different tables or passages of the source. Non-standard residues stand in square brackets, D forms with d. Residues, ends and D or L forms follow the SMILES beside them. No end group written: not given here. Bip = N[C@@H](Cc1ccc(-c2ccccc2)cc1)C(=O)O; d3Pal = N[C@H](Cc1cccnc1)C(=O)O

The IC50 is the midpoint of a concentration-inhibition curve.

The subject of data set [1] is MMP-8. The conditions noted are these: cited from earlier work. The source says:
Table 1 Peptide sequences and their IC50 values in μM against target enzymes. | column: MMP-8

In data set [2] the test system is MMP-9. The conditions noted are these: cited from earlier work. From the text: Table 1 Peptide sequences and their IC50 values in μM against target enzymes. | column: MMP-9
The test system of data set [3] is TACE. The note with it: cited from earlier work. The source says: Table 1 Peptide sequences and their IC50 values in μM against target enzymes. | column: TACE
For data set [4], the system named is Swiss mice, LPS endotoxin shock. As to the kind of experiment: Endotoxin shock mouse model, survival after LPS challenge. Format: in vivo. The protocol: The protective effect of all inhibitors was evaluated in a similar way. P2 (90 mg/kg P2) was used at a similar molar concentration as Regasepin 2. The effect of lower dosages of P2 (30 mg/kg and 10 mg/kg) was also evaluated in parallel experiments. The details of the animal experiments, including grouping of mice, number of mice in each group, reagent concentrations, and ways of administration, are shown in Table 2. The peptides were administered intravenously 5 minutes after LPS injection.
The protective effects via intravenous injection were evaluated in groups of 6 mice, intravenously injected with 100 μL (7 mg/mL; 35 mg/kg) Regasepin 2 or Inhibitor 2 (35 mg/kg) 5 minutes after intravenous injection of LPS (200 μg per mouse). The numbers of surviving mice were recorded regularly after LPS administration. Kaplan-Meier survival curves were generated. P values were calculated compared with the survival rates of the negative control group. The experiments were performed two times.
Regasepin 2 via intravenous injection (35 mg/kg) was used as a positive control peptide. 200 μL P2 (15 mg/mL) was administered intraperitoneally (150 mg/kg) 30, 60, or 90 minutes before intravenous LPS challenge (200 μg per mouse) to evaluate the effect of P2 via this administration route. The protective effects of a single intravenous injection of P2 (10 mg/kg) and two times intravenous administration of P2 (10 mg/kg) with 2 hours interval were also included and compared.
Results were represented as mean ± SD. Statistical significance was assessed using statistics software SPSS13.0. Two-way analysis of variance (ANOVA) was used to test for differences between groups. For all statistical comparisons, positive groups were compared with negative controls, and ^* P < 0.05 or ^** P < 0.01 were considered statistically significant.

For data set [5] the test system is unchanged. The conditions noted are these: 100 μL (7 mg/mL), 35 mg/kg iv 5 minutes after iv LPS, ref [9]; cited from earlier work. The method, then: The protective effect of all inhibitors was evaluated in a similar way. P2 (90 mg/kg P2) was used at a similar molar concentration as Regasepin 2. The effect of lower dosages of P2 (30 mg/kg and 10 mg/kg) was also evaluated in parallel experiments. The details of the animal experiments, including grouping of mice, number of mice in ea ...

For data set [6] the following is noted: mouse, in vivo, ip, 150 mg/kg.
Procedure: (§1) The concentration of P2-BSA that was used to coat the plates and the reagent concentration of the P2-specific polyclonal antibody were optimized by two-dimensional serial dilution tests. 96-well microtiter plates were coated with a solution of 6 μg/mL P2-BSA in 0.05 M sodium bicarbonate (pH 9.6) and the plate was kept overnight at 4°C. After washing the plate three times, the plate was blocked with 0.1 M PBS (pH 7.4) containing 10% (V/V) skim milk at 37°C for 1.5 h. To perform the competition ELISA between P2 and the immobilized P2-BSA, P2-specific antibody (1000 times serum dilution) was added to the wells in the presence of plasma or standard samples at 37°C for 1.5 h. After washing the plate three times, 100 μL of horseradish peroxidase-conjugated goat anti-rabbit IgG (1 : 2000) was added and incubated for 1 h at 37°C. After washing three times, the tetramethylbenzidine (TMB) substrate (100 μL/well) was added and the reaction was executed for 15 min. The reactions were stopped with 2 M sulfuric acid (50 μL/well). The absorbance of each well at 450 nm was detected with an automated ELISA reader. The calibration curve was expressed according to the fact that 1-B/B0 are linear with log C (where B0 is the OD value in the absence of P2 in plasma, B is the OD value at serial concentrations of P2 in plasma, and C is the P2 concentration, resp.). The indirect ELISA procedures were conducted in duplicate with a set of standard concentrations of P2 in diluted mouse serum in order to determine the mathematical fitting equation and linear detection range.
(§2) Adult female Swiss mice, 5 animals per group, were used for the pharmacokinetic studies. P2 (90 mg/kg, 30 mg/kg, or 10 mg/kg) was dissolved in sterile 0.9% saline and was administered intravenously. Blood samples were collected through the canthus at 0, 3, 6, 9, 12, 15, and 30 min. For intraperitoneal injection of P2, 150 mg/kg P2 dissolved in 0.9% saline was administered and blood samples were collected through the canthus at 0, 13, 20, 40, 68, 100, 127, and 168 minutes.
(§3) Blood samples were immediately centrifuged (12000 rpm for 30 seconds), and the supernatants were taken and diluted 10, 30, or 300 times with PBS, prewarmed at 80°C in a water bath. The diluted samples were kept at 80°C for another 30 min to remove enzyme activity of the plasma components. Samples were diluted with prewarmed PBS so that the final concentration of P2 was within the linear range of the standard line. After another centrifugation (12000 rpm for 2 min), the diluted samples were analyzed by ELISA to measure the plasma P2 concentrations.
For data set [7] the following is noted: mouse, in vivo.
Procedure: as §1, §2, §3
The conditions of data set [8]: rat; cited from earlier work.
Source text: The pharmacokinetics of P2 by intraperitoneal injection was also investigated.

Turning to IVRRADRAAVP [ES-2], the IC50 in data set [1] (ref [10]), in data set [2] (ref [10]) and in data set [3] (ref [10]) was over 500000 nM in each case.

Regarding “Pro-(D-Pyr)-(D-Cys)-Bip-Arg-Gly-Glu [Inhibitor 2]”, the IC50 in data set [1] (ref [11]) was 800 nM; in data set [2] (ref [11]), 2750 nM; in data set [3] (ref [11]) it was 5500 nM.

Turning to “Pro-Pyr-Cys-Bip-Arg-Gly-Glu [Regasepin 2]”, the “Protective effect (survival), positive control” value in data set [4] (35 mg/kg iv 5 minutes after LPS iv, n = 12, Figures 4(b)-4(d)) was “significant protective effect”. Also, the concentration for half-maximal inhibition (IC50) in data set [1] (ref [9]) is 10000 nM; in data set [2] (ref [9]) it was 800 nM; in data set [3] (ref [9]) it was 1500 nM. For the same compound, in data set [5], the “Protection from endotoxin shock” value is reported as “protect mice from endotoxin shock”.

Turning to `CC[C@H](C)[C@H](NC(=O)CNC(=O)CNC(=O)CNC(=O)CNC(=O)[C@H](CCC(=O)O)NC(=O)CNC(=O)[C@H](CCCNC(=N)N)NC(=O)[C@H](Cc1ccc(-c2ccccc2)cc1)NC(=O)[C@@H](CS)NC(=O)[C@@H](Cc1cccnc1)NC(=O)[C@@H]1CCCN1)C(=O)N[C@H](C(=O)N[C@@H](CCCNC(=N)N)C(=O)N[C@@H](CCCNC(=N)N)C(=O)N[C@@H](C)C(=O)N[C@@H](CC(=O)O)C(=O)N[C@@H](CCCNC(=N)N)C(=O)N[C@@H](C)C(=O)N[C@@H](C)C(=O)N[C@H](C(=O)N1CCC[C@H]1C(=O)O)C(C)C)C(C)C` [P2] (H-P[d3Pal][dC][Bip]RGEGGGGIVRRADRAAVP-OH; N-terminus and C-terminus assumed), in data set [4] (10 mg/kg iv 5 minutes after LPS iv and again 2 hours later, n = 12, Figure 4(a) G3), the “Survival after two injections (G3) versus single injection (G2)” value is listed as “less mice survived”. The “Survival versus LPS-treated control group” value in data set [4] (single 10 mg/kg iv 5 minutes after LPS iv, n = 12, Figure 4(a) G2) was “significant difference with the LPS-treated control group”. Also, in data set [6], the level at time molar at 100 min was found to be 1540 nM. Also, the “Time at which the peak plasma level was reached” value in data set [7] (ip, 150 mg/kg) is at most 13 min. The “Time an effective P2 concentration (above 2 μM) remained in plasma” value in data set [7] (iv, 10 mg/kg) was determined as 6 min. Besides, in data set [7] (iv, 90 mg/kg), the “Time the effective plasma concentration of P2 lasted” value was “less than 30 minutes”. Moreover, the IC50 in data set [1] (ref [10]) was 350 nM; in data set [2] (ref [10]) it was 1360 nM; in data set [3] (ref [10]), 1950 nM.

For “PRC[Bip]CGE (cysteine pairing not given here) [Regasepin 1]”, the IC50 is 3000 nM in data set [1] (ref [8]), 1500 nM in data set [2] (ref [8]) and 5000 nM in data set [3] (ref [8]).

As to IVRRADRAAVPGGGGRGD [HM-3], in data set [8], the in vivo half-life is 27 min.

The values are drawn from paper PMC4265539, “Inhibition of Neutrophil Collagenase/MMP-8 and Gelatinase B/MMP-9 and Protection against Endotoxin Shock” (Journal of Immunology Research, 2014).
